How the values were obtained:
[1] = system: Ova-specific target cells; assay: in vivo specific cytotoxic T cell (CD8+) response, specific lysis of Ova-specific target cells; set-up: species or system mouse; conditions: for specific lysis of Ova-specific target cells in blood: Example 1, FIG. 1, 1 μg adjuvant with 50 μg Ova, day 0, target cells day 10, read day 11; for specific lysis of Ova-specific target cells in blood / average Ova-specific cytotoxic response (percent specific lysis): IV; for percentage of specific lysis of the target cells by CD8+ T cells: Example 5 Experiment B, FIG. 8, 50 μg OVA with 10 ng adjuvant; for percentage of specific lysis of the target cells by CD8+ T cells / average OVA-specific cytotoxic response (percent specific lysis) / enhancement of the CD8+ T cell response at low doses (specific lysis): IM; for percentage of specific lysis of the target cells by CD8+ T cells / average Ova-specific cytotoxic response (percent specific lysis) / average OVA-specific cytotoxic response (percent specific lysis): blood day 11; for average Ova-specific cytotoxic response (percent specific lysis): Example 2, FIG. 2; for average Ova-specific cytotoxic response (percent specific lysis) / average OVA-specific cytotoxic response (percent specific lysis): 400 μg Ova with or without 1 μg adjuvant; for average OVA-specific cytotoxic response (percent specific lysis): Example 2, FIG. 3; for enhancement of the CD8+ T cell response at low doses (specific lysis): Example 5, FIGS. 7 and 8, 50 μg OVA with 100 ng or 10 ng adjuvant
[2] = system: CD8+ T cells responsive to OVA; assay: SIINFEKL pentamer assay, percentage of OVA-specific CD8+ T cells; assay type: in vivo, mouse; conditions: IM, days 0 and 14, blood day 21
Protocol: To verify the results obtained using the in vivo cytotoxicity assay described in the Examples above, similar experiments were performed and CD8+ T cell activation was determined by measuring the percentage of OVA-specific CD8+ T cells using a pentamer assay. Briefly, mice were injected intramuscularly with the indicated amounts of OVA and test adjuvant compound at either 1 μg or 100 ng per mouse, respectively on day 0 as follows:
Experiment A: • Group 1: 100 μl of PBS; • Group 2: 50 μg of Ova into 100 μl PBS; • Group 3: 50 μg of Ova with 1 μg αGalCer; • Group 4: 50 μg of Ova with 1 μg PBS-11 • Group 5: 50 μg of Ova with 1 μg PBS-14 • Group 6: 50 μg of Ova with […] PBS-57 • Group 7: 50 μg of Ova with 1 μg PBS-96
Experiment B: • Group 1: 100 μl of PBS; • Group 2: 50 μg of Ova into 100 μl PBS; • Group 3: 50 μg of Ova with 100 ng αGalCer; • Group 4: 50 μg of Ova with 100 ng PBS-11 • Group 5: 50 μg of Ova with 100 ng PBS-14 • Group 6: 50 μg of Ova with 100 ng PBS-57 • Group 7: […] of Ova with 100 ng PBS-96 A second injection was administered to the mice on day 14 and blood was collected from the mice on day 21. The lymphocytes were collected and analyzed by FACS analysis using H-2K^b SIINFEKL pentamer and CD8 antibody to detect CD8+ T cells responsive to OVA.

[3] = system: OVA-specific IgG2a; assay: OVA-specific IgG2a ELISA after intramuscular immunization; assay type: in vivo, mouse; conditions: FIG. 12; IM, 50 μg OVA with 100 ng adjuvant, 14 days post-injection
Protocol: Mice (6 per group) were injected intramuscularly with 50 μg of OVA either alone or in combination with 100 ng of the indicated adjuvants (Freund's adjuvant was used as a positive control) as follows: • Group 1: […] of Ova with CFA/IFA (Positive control) • Group 2: 50 μg of Ova • Group 3: 50 μg of Ova and 100 ng of αGalCer • Group 4: 50 μg of Ova and 100 ng of PBS-11 • Group 5: 50 μg of Ova and 100 ng of PBS-14 • Group 6: 50 μg of Ova and 100 ng of PBS-57 • Group 7: 50 μg of Ova and 100 ng of PBS-96 At 14 days post-injection, blood samples were collected and ELISAs for IgG1 and IgG2a were performed using mouse monoclonal antibodies specific for OVA isotype IgG1 or IgG2a. The results are shown as the titer of the antibody in peripheral blood in ng/ml. The results for IgG1 are depicted in FIG. 11 and those for IgG2a are depicted in FIG. 12.

[4] = Example 6 Experiment A, FIG. 9, 50 μg Ova with 1 μg adjuvant
[5] = Example 6 Experiment B, FIG. 10, 50 μg Ova with 100 ng adjuvant

## CCCCCCCCCCCCCCCCCCCCCCCCCC(=O)N[C@@H](CO[C@H]1O[C@H](CNC(=O)CCCC[C@@H]2SC[C@@H]3NC(=O)N[C@@H]32)[C@H](O)[C@H](O)[C@H]1O)[C@H](O)[C@H](O)CCCCCCCCCCCCCC [PBS-11, reference compound]
[1]
  specific lysis of Ova-specific target cells in blood: did not result in specific lysis of cells
  percentage of specific lysis of the target cells by CD8+ T cells: indistinguishable from the controls
[2]; [4]
  percentage of OVA specific CD8+ T cells (SIINFEKL pentamer): not as effective

## CCCCCCCCCCCCCCCCCCCCCCCCCC(=O)N[C@@H](CO[C@H]1O[C@H](CNC(C)=O)[C@H](O)[C@H](O)[C@H]1O)[C@H](O)[C@H](O)CCCCCCCCCCCCCC [PBS-14]
[1]
  specific lysis of Ova-specific target cells in blood: resulted in cytotoxic lysis of Ova-specific target cells
  average Ova-specific cytotoxic response (percent specific lysis): 83.3±6.1%
  average OVA-specific cytotoxic response (percent specific lysis): 52.07±29.56%
  enhancement of the CD8+ T cell response at low doses (specific lysis): unexpectedly better than other adjuvants
[2]; [4]
  percentage of OVA specific CD8+ T cells (SIINFEKL pentamer): enhanced the percentage of OVA specific CD8+ T cells
[2]; [5]
  percentage of OVA specific CD8+ T cells (SIINFEKL pentamer): surprisingly much better at enhancing the CD8+ T cell response
[3]
  OVA specific IgG2a titer in peripheral blood: enhanced the OVA specific IgG2a titer about as well as Freund's adjuvant and much better than PBS-57

## CCCCCCCC/C=C\CCCCCCCCCCCCCC(=O)N[C@@H](CO[C@H]1O[C@H](CNC(C)=O)[C@H](O)[C@H](O)[C@H]1O)[C@H](O)[C@H](O)CCCCCCCCCCCCCC [PBS-57, reference compound]
[1]
  average Ova-specific cytotoxic response (percent specific lysis): 88.1±6.2%
  average OVA-specific cytotoxic response (percent specific lysis): 56.11±13.34%
  percentage of specific lysis of the target cells by CD8+ T cells: indistinguishable from the controls
[2]; [4]
  percentage of OVA specific CD8+ T cells (SIINFEKL pentamer): enhanced the percentage of OVA specific CD8+ T cells

## CCCCCCCCCCCCCCCCCCCCCCCC(=O)N[C@@H](CO[C@H]1O[C@H](CNC(C)=O)[C@H](O)[C@H](O)[C@H]1O)[C@H](O)[C@H](O)CCCCCCCCCCCCCC [PBS-96]
[1]
  specific lysis of Ova-specific target cells in blood: resulted in cytotoxic lysis of Ova-specific target cells
  average Ova-specific cytotoxic response (percent specific lysis): 89.2±10.3%
  average OVA-specific cytotoxic response (percent specific lysis): 50.29±42.6%
  enhancement of the CD8+ T cell response at low doses (specific lysis): unexpectedly better than other adjuvants
[2]; [4]
  percentage of OVA specific CD8+ T cells (SIINFEKL pentamer): enhanced the percentage of OVA specific CD8+ T cells
[2]; [5]
  percentage of OVA specific CD8+ T cells (SIINFEKL pentamer): surprisingly much better at enhancing the CD8+ T cell response
[3]
  OVA specific IgG2a titer in peripheral blood: enhanced the OVA specific IgG2a titer about as well as Freund's adjuvant and much better than PBS-57

## CCCCCCCCCCCCCCCCCCCCCCCCCC(=O)N[C@@H](CO[C@H]1O[C@H](CO)[C@H](O)[C@H](O)[C@H]1O)[C@H](O)[C@H](O)CCCCCCCCCCCCCC [αGalCer, α-galactosyceramide, reference compound]
[1]
  percentage of specific lysis of the target cells by CD8+ T cells: indistinguishable from the controls
[2]; [4]
  percentage of OVA specific CD8+ T cells (SIINFEKL pentamer): not as effective

B1: ovalbumin (protein, UniProt P01012 2-386, looked up)
Ovalbumin: GSIGAASMEFCFDVFKELKVHHANENIFYCPIAIMSALAMVYLGAKDSTRTQINKVVRFDKLPGFGDSIEAQCGTSVNVHSSLRDILNQITKPNDVYSFSLASRLYAEERYPILPEYLQCVKELYRGGLEPINFQTAADQARELINSWVESQTNGIIRNVLQPSSVDSQTAMVLVNAIVFKGLWEKAFKDEDTQAMPFRVTEQESKPVQMMYQIGLFRVASMASEKMKILELPFASGTMSMLVLLPDEVSGLEQLESIINFEKLTEWTSSNVMEERKIKVYLPRMKMEEKYNLTSVLMAMGITDVFSSSANLSGISSAESLKISQAVHAAHAEINEAGREVVGSAEAGVDAASVSEEFRADHPFLFCIKHIATNAVLFFGRCVSP
notes: nominal antigen, Ovalbumin grade VII, Sigma
[1]
  average Ova-specific cytotoxic response (percent specific lysis): 11.8±14.4%
  average OVA-specific cytotoxic response (percent specific lysis): 1.60±14.33%
